Reference: US8425968B2, “Beverage preservative system containing pimaricin-cyclodextrin complex” (PepsiCo., Inc., priority 2009, dated 2013)
≈ marks a conversion by molar mass, not a printed value.

Assays:
bio-indicator mold [1] = settings: reported by the manufacturer of DMDC; cited from earlier work
physchem = format: physicochemical
[2] = 25° C., pH approximately 6.4; cited from earlier work
[3] = test system: Byssochlamys fulva ATCC 24088; test: 16 week mold spore challenge MIC in beverage; format: cell-based; settings: Paecilomyces fulvus, ATCC 10099 / ATCC 24088, pH 3.4; read-out: 16 week incubation MIC (ppm)
Description: (§1) The preparation of beverage was divided into two aliquots.
(§2) Each of 24 such preparations was then divided equally across 8 separate tubes making for 192 samples. […] The tubes were sealed in a manner that prohibits moisture evaporation.
(§3) The mold spores employed were obtained from the following organisms. Aspgergillus niger isolate of Pepsi; ATCC strain 90900 (Talaromyces spectabilis), ATCC strain 48441 (Pencillium galbrum), ATCC 24088 (Byssochlamys fulva), ATCC 96468 (Neosartorva fischeri) ATCC strain 96463 (Talaromyces flavus) and ATCC strain ATCC 10512 (Talaromyces flavus var. flavus). Each spore type was present at 20 spores per milliliter.
(§4) The second aliquot of beverage is identical to the 1st aliquot except for the presence of cyclodextrin-pimaricin complex. […] Each of 36 such preparations was then divided equally across 8 separate tubes making for 288 samples. […] The tubes were sealed in a manner that prohibits moisture evaporation.
(§5) The mold spores employed were obtained from the following organisms Paecilomyces puntoni (Pepsi isolate D3), ATCC 36614 (Byssochlamys nieva) ATCC 24088 (Byssochlamys fulva), ATCC 96468 (Neosartorya fischeri) ATCC strain 96463 (Talaromyces flavus) and ATCC strain ATCC 10512 (Talaromyces flavus var. flavus). Each spore type was present initially at 20 spores per milliliter of product. Spores for Byssochlamys nieva were developed at both 25° C. on Potato Dextrose and 30° C. on Malt Extract in order to ensure some variation in the ratio of asci (ascospores) to conidiospores. […]
(§6) One sample remained un-inoculated and served as a negative control. […] These samples served as the positive controls in this test. […]
(§7) After inoculation with spores from various mold, samples were incubated at 25-27° C. for a period of 16 weeks before.
(§8) As outlined previously, two separate aliquots of beverage were formulated, one containing Pimaricin in complex with g-cyclodextrin and one without. Both aliquots contained 30 ppm Cinnamic acid.

[4] = test system: Talaromyces flavus ATCC 96463; test: 16 week mold spore challenge MIC in beverage; format: cell-based; settings: ATCC96463, pH 3.4, read-out: 16 week incubation MIC (ppm)
Description: as §1, §2, §3, §4, §5, §6, §7, §8

[5] = test system: Talaromyces flavus var. flavus ATCC 10512; test: 16 week mold spore challenge MIC in beverage; format: cell-based; settings: ATCC10512, pH 3.4, read-out: 16 week incubation MIC (ppm)
Description: as §1, §2, §3, §4, §5, §6, §7, §8

[6] = test system: Neosartorya fischeri ATCC 96468; test: 16 week mold spore challenge MIC in beverage; format: cell-based; settings: Aspergillus fischeri, ATCC96468, pH 3.4; read-out: 16 week incubation MIC (ppm)
Description: as §1, §2, §3, §4, §5, §6, §7, §8

bio-indicator mold [7] = test: Preservation of beverage for 16 weeks against the array of bio-indicator / spoilage organisms; format: cell-based
Description: As used herein, the terms “preserve,” “preservative,” and “preservation” refer to a food or beverage product protected against or a composition able to stop or completely prevent spoilage of a product that is the result of the growth of spoilage microorganisms for a period of at least 16 weeks. This period is in keeping with the time required to transport a beverage product from location of manufacture, through distribution channels, into the hand of the consumer. Absence of spoilage is noted by absence any evidence of growth of spoilage organisms (turbidity, viable count, direct microscopic count or other standard methods of enumeration) and by the absence of any discernable change in the product attributes that could be routinely attributed to metabolism of spoilage organisms.
as §2, §4
An apple juice based beverage was prepared to contain 30 ppm EDTA (0.003%) as shown below. The beverage was divided into two aliquots. […]

[8] = purportedly; cited from earlier work
[9] = test system: Aspergillus (Pepsi Isolate); test: 16 week mold spore challenge MIC in beverage; format: cell-based, Aspergillus niger; settings: pH 3.4, read-out: 16 week incubation MIC (ppm)
Description: (§9) A 2% fruit juice based non-carbonated beverage of pH 3.4 and about 12 Brix was formed by combining the following ingredients.
as §1, §2, §3

[10] = test system: Talaromyces spectabilis ATCC 90900; test: 16 week mold spore challenge MIC in beverage; format: cell-based; settings: Paecilomyces variotii, ATCC90900, pH 3.4; read-out: 16 week incubation MIC (ppm)
Description: as §9, §1, §2, §3

[11] = test system: Penicillium glabrum ATCC 48441; test: 16 week mold spore challenge MIC in beverage; format: cell-based; settings: ATCC48441, pH 3.4, read-out: 16 week incubation MIC (ppm)
Description: as §9, §1, §2, §3

COC(=O)OC(=O)OC [DMDC, Dimethyl dicarbonate]
concentration required to stabilize beverage for 16 weeks against vegetative yeast, mold and bacteria (bio-indicator mold [1]): at least 250 mg/liter

CC1O[C@@H](O[C@H]2/C=C/C=C/C=C/C=C/C[C@@H](C)OC(=O)/C=C/[C@H]3O[C@@H]3C[C@H](O)C[C@]3(O)C[C@H](O)[C@@H](C(=O)O)[C@H](C2)O3)C(O)C(N)[C@@H]1O (stereo partly drawn) [Pimaricin]
solubility (physchem; 4 °C, pH 3.4, aqueous buffer, thermodynamic from solid): 10 µg/mL (≈ 15 µM) | solubility at 24 h (physchem; 25 °C, pH 3.4, aqueous buffer, thermodynamic from solid): 20 µg/mL (≈ 30 µM) | solubility limit in high acid beverage (physchem; pH 3.4): ~10 ppm | solubility in pure water [2]: 52 µg/mL (≈ 78.1 µM) | MIC [3]: 16.9 µg/mL (≈ 25.4 µM) | MIC [4]: > 20 µg/mL | MIC [5]: > 20 µg/mL | MIC [6]: > 20 µg/mL | mold able to grow at highest concentration in solution (bio-indicator mold [7]; 20.0 ppm un-complexed Pimaricin, apple juice beverage pH 3.4): > 50% | minimum initial stand alone concentration needed to preserve product for 16 weeks (bio-indicator mold [7]; stand alone): 400 mg pimaricin per liter | pKa of carboxylic acid group [8]: ~6.5 | MIC [9]: 18.4 µg/mL (≈ 27.6 µM) | MIC [10]: 10.3 µg/mL (≈ 15.5 µM) | MIC [11]: 5.7 µg/mL (≈ 8.56 µM)
